Test results from ChEMBL document CHEMBL5465560, “Selectivity Literature for EUbOPEN Chemogenomic Library” (2024).
Values belong to the compound of their own block, whether it stands above or below them.

Experiments:
[1] = target: T1, Serine/threonine-protein kinase DCLK1 (Homo sapiens) (UniProt O15075); assay: Selectivity interaction (KinomeScan (DiscoverX)) EUB0000655a DCLK1; conditions: at 10 µM
T1 sequence (whole entry): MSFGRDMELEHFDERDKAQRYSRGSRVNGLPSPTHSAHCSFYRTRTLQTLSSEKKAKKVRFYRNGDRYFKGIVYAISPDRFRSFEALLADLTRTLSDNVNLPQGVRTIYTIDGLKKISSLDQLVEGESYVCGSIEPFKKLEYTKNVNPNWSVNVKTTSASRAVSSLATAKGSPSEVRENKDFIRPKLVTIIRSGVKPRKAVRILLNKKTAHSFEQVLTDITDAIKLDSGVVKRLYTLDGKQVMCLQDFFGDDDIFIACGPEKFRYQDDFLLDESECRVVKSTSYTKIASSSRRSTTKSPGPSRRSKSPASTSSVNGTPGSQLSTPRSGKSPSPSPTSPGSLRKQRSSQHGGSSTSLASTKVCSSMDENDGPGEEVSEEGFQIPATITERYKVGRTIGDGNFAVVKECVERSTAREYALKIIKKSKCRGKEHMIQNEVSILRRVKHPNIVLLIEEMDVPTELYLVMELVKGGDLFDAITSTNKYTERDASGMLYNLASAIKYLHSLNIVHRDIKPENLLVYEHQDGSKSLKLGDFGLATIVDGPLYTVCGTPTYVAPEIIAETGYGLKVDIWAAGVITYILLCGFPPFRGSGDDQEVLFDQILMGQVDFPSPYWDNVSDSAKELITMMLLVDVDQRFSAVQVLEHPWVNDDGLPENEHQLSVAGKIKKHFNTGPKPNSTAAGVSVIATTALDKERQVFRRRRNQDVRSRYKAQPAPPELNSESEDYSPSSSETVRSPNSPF

[2] = target: T2, Mitogen-activated protein kinase kinase kinase 3 (Homo sapiens) (UniProt Q99759); assay: Selectivity interaction (KinomeScan (DiscoverX)) EUB0000607a MAP3K3; conditions: at 10 µM
T2 sequence (whole entry): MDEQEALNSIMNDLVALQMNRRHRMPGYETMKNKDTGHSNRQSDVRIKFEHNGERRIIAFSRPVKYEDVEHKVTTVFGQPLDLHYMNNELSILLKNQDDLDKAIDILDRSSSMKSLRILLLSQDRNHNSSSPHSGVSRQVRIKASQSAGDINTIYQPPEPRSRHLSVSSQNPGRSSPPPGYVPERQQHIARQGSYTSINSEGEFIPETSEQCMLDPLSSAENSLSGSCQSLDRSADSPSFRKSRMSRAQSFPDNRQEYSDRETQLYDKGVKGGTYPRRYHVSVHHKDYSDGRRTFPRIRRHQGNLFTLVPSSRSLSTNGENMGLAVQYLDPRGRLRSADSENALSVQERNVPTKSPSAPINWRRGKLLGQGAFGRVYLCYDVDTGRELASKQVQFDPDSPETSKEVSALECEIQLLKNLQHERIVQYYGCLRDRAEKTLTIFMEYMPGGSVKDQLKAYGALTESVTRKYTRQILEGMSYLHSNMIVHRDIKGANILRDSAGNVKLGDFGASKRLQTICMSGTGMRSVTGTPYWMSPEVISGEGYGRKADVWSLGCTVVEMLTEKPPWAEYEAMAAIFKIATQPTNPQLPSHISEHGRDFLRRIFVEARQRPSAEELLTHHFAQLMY

[3] = target: Calcium/calmodulin-dependent protein kinase type II subunit gamma (Homo sapiens) (UniProt Q13555); assay: Selectivity interaction (ActivX KiNativ screen (ex vivo kinase selectivity in human PBMCs)) EUB0001619a CAMK2G; assay type: cell-based; conditions: PBMC, at 1 µM
Sequence of Calcium/calmodulin-dependent protein kinase type II subunit gamma (Homo sapiens) (Q13555 whole entry): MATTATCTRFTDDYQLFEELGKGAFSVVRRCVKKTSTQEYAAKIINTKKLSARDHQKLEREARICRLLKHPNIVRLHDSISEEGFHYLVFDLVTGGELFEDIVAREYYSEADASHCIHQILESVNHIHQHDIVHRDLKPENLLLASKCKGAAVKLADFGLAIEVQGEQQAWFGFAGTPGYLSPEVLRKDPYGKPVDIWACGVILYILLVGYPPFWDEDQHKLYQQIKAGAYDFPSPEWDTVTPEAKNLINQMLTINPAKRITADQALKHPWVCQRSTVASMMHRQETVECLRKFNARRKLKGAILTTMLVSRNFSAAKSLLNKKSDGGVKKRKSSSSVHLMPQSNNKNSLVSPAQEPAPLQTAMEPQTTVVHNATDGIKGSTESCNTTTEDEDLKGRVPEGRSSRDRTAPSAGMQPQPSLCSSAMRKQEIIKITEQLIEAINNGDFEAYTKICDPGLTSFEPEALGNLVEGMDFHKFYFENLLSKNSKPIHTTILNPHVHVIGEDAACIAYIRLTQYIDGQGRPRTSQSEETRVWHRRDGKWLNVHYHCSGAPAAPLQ

[4] = target: Serine/threonine-protein kinase PLK1 (Homo sapiens, UniProt P53350); assay: Selectivity interaction (KinomeScan (DiscoverX)) EUB0001619a PLK1; conditions: at 1 µM
Sequence of Serine/threonine-protein kinase PLK1 (P53350 whole entry): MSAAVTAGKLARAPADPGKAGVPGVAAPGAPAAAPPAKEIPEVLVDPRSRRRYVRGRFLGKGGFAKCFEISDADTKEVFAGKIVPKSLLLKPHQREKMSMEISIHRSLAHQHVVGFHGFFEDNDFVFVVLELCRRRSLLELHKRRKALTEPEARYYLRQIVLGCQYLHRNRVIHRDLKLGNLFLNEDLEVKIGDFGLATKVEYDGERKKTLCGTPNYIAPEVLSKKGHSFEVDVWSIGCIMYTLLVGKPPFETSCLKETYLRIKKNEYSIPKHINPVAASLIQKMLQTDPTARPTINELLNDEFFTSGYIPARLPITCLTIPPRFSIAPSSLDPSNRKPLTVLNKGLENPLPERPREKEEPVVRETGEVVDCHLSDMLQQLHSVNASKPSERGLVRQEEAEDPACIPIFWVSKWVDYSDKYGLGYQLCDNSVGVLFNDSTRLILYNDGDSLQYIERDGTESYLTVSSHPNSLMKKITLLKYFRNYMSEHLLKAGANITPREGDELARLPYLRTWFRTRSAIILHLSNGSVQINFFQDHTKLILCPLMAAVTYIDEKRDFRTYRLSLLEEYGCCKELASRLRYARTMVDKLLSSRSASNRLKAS

[5] = target: High affinity nerve growth factor receptor (Homo sapiens, UniProt P04629); assay: Selectivity interaction (SelectScreen Kinase Profiling (Thermo Fisher Scientific)) EUB0001558a NTRK1; conditions: at 1 µM
Sequence of High affinity nerve growth factor receptor (P04629 33-796 limits assumed): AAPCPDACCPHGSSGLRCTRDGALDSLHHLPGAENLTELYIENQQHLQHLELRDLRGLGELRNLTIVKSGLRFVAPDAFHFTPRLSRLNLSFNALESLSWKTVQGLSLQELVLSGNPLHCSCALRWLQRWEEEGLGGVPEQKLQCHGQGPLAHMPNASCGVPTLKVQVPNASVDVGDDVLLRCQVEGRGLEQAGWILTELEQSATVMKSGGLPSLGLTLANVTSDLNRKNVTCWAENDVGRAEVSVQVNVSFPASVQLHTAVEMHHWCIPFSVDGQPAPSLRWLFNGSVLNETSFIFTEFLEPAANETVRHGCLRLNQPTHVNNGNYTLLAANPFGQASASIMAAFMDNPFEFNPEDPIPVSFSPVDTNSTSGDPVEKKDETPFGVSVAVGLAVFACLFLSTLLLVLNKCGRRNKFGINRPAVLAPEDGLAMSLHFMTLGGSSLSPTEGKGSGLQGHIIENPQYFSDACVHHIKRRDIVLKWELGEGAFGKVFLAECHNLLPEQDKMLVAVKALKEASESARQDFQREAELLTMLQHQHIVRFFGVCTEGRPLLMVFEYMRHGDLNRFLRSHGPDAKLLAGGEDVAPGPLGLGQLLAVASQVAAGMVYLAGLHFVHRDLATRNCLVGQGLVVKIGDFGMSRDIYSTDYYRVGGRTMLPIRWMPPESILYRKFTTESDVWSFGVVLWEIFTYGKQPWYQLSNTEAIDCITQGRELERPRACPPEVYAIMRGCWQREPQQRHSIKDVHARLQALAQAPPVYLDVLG

[6] = target: T3, Myosin light chain kinase family member 4 (Homo sapiens) (UniProt Q86YV6); assay: Selectivity interaction (KinomeScan (DiscoverX)) EUB0000045b MYLK4
T3 sequence (whole entry): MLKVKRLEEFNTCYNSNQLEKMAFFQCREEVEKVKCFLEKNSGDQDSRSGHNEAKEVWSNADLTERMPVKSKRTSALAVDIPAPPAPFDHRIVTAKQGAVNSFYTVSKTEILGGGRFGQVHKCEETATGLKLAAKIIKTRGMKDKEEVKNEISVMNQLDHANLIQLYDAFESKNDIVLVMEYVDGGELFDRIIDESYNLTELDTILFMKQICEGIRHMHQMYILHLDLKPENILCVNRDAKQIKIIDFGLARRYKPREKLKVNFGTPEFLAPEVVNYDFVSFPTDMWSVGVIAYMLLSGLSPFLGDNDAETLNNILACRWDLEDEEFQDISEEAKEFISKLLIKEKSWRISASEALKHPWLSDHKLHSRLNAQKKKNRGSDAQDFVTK

[7] = target: Mitogen-activated protein kinase 8 (Homo sapiens, UniProt P45983); conditions: at 10 µM
Sequence of Mitogen-activated protein kinase 8 (P45983 whole entry): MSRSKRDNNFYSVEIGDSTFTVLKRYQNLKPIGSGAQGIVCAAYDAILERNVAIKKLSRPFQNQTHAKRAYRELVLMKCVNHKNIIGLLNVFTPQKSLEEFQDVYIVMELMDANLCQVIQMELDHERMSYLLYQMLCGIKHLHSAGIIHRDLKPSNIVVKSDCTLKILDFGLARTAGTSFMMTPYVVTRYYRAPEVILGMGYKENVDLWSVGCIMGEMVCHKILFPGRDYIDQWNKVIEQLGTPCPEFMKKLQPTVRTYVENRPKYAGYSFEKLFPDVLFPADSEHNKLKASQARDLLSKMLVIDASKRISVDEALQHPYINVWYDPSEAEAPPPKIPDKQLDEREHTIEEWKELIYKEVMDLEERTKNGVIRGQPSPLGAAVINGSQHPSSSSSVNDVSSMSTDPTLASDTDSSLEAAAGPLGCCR

[8] = target: Serine/threonine-protein kinase MARK2 (Homo sapiens) (UniProt Q7KZI7); assay: Selectivity interaction (ActivX KiNativ screen (kinase selectivity in THP-1 cell lysates)) EUB0000639a MARK2; assay type: subcellular; conditions: lysate, at 0.04 µM
Sequence of Serine/threonine-protein kinase MARK2 (Homo sapiens) (Q7KZI7 whole entry): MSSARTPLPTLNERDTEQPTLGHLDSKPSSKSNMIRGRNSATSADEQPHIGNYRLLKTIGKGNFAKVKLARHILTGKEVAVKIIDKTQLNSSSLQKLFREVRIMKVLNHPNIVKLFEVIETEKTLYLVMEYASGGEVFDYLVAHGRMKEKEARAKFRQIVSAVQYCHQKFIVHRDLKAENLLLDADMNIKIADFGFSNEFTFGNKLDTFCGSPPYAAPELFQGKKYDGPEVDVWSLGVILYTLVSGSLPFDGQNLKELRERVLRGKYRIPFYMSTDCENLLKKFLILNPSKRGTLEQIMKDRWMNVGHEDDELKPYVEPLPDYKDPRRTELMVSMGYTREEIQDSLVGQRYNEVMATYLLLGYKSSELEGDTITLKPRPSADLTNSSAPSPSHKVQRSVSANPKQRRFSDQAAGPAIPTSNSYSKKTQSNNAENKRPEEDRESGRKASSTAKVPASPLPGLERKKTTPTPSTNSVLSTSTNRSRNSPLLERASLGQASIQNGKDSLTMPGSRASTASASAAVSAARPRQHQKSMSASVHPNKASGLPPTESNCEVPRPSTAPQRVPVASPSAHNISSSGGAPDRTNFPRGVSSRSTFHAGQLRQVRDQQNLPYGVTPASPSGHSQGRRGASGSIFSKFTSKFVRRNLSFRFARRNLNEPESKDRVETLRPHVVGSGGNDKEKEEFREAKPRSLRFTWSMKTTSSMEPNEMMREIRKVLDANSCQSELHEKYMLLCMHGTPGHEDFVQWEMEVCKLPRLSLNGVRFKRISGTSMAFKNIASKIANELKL

[9] = target: MAP kinase-activated protein kinase 5 (Homo sapiens, UniProt Q8IW41); assay: Selectivity interaction (Kinase panel (33PanQinase(R) Activity Assay)) EUB0000877a MAPKAPK5
Sequence of MAP kinase-activated protein kinase 5 (Q8IW41 whole entry): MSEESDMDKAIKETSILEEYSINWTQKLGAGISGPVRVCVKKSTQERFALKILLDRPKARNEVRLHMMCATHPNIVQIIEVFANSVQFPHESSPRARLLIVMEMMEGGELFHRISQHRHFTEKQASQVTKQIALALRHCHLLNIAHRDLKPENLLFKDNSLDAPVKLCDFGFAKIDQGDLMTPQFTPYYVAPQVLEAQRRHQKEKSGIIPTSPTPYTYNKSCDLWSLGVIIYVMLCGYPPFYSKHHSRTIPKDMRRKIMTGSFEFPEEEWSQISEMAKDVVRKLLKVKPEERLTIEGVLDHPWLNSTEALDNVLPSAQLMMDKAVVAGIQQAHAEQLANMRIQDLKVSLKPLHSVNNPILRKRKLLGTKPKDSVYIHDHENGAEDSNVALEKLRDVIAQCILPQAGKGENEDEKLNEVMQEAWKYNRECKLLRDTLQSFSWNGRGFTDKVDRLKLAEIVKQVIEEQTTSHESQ

[10] = target: Serine/threonine-protein kinase PAK 2 (Homo sapiens) (UniProt Q13177); assay: Selectivity interaction (KinomeScan (DiscoverX)) EUB0000092b PAK2; conditions: at 10 µM
Sequence of Serine/threonine-protein kinase PAK 2 (Homo sapiens) (Q13177 whole entry): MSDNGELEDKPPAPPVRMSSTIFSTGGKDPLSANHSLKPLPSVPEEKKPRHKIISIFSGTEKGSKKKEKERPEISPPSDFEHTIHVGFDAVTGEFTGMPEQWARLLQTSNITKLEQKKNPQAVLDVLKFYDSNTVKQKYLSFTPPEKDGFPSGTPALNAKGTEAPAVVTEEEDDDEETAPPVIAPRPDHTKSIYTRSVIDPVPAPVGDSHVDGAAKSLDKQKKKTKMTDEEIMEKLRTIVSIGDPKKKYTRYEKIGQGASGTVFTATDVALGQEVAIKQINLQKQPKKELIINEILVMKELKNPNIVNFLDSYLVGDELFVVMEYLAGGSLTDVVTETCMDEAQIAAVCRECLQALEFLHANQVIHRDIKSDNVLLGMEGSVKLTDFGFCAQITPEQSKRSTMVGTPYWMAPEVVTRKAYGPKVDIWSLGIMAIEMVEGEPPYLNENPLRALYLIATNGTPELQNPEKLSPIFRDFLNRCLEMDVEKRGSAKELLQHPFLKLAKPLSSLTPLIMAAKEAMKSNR

Structure (SMILES): CN(C)CCOc1ccc(-c2nc(-c3ccncc3)c(-c3ccc4c(c3)CC/C4=N\O)[nH]2)cc1
% of control [1]: 88%

Structure (SMILES): CNC(=O)Nc1ccc(-c2nc(N3CC4CCC(C3)O4)c3cnn(C4CCC5(CC4)OCCO5)c3n2)cc1
% of control [2]: 100%

Structure (SMILES): N#Cc1cccc(-c2c[nH]c3ncnc(N4CCOCC4)c23)c1
% of inhibition [3]: -12%
% of control [4]: 100%

Structure (SMILES): CC(C)(O)[C@H](F)CN1Cc2cc(NC(=O)c3cnn4cccnc34)c(N3CCOCC3)cc2C1=O
% of inhibition [5]: 71%

Structure (SMILES): C=CC(=O)Nc1cc(-n2c(=O)ccc3cnc4ccc(-c5ccc(NS(C)(=O)=O)cc5)cc4c32)ccc1C
% of control ([6]; at 1 µM): 96%
% of control ([6]; at 10 µM): 97%

Structure (SMILES): Cc1cc([C@@H](C)Nc2ccccc2C(=O)O)c2nc(N3CCOCC3)cc(=O)n2c1 [AZD-6482]
% of control [7]: 100%

% of inhibition [8]: 0.7%
Structure (SMILES): CC[C@@H]1[C@H](F)C(=O)N[C@@H]1COc1nccc2cc(C(N)=O)c(OC)cc12 [ZIMLOVISERTIB]

IC50 [9]: > 10 µM
Structure (SMILES): CCC(=O)N1CC[C@H](Nc2ncnc3c2CN(c2cnc(OC)c(C(F)(F)F)c2)CC3)C1 [LENIOLISIB]

Structure (SMILES): CCC(=O)N1CCN(c2ccc(-n3c(=O)ccc4cnc5ccc(-c6cnc7ccccc7c6)cc5c43)cc2C(F)(F)F)CC1
% of control [10]: 100%
